Ends that are not written are not given here.
What was measured:
Assay in all cases: MIC, broth microdilution
[1] = tested on: Bacillus subtilis (KCTC 3068); type: cell-based; conditions: B. subtilis, 2 × 10^6 CFU/mL
S. aureus (KCTC 1621) = type: cell-based, Staphylococcus aureus; conditions: 2 × 10^6 CFU/mL
[2] = tested on: Proteus vulgaris (KCTC 2433); type: cell-based; conditions: P. vulgaris, 2 × 10^6 CFU/mL
[3] = tested on: Pseudomonas aeruginosa (KCTC 1637); type: cell-based; conditions: P. aeruginosa, 2 × 10^6 CFU/mL
[4] = tested on: Staphylococcus epidermidis (KCTC 1917); type: cell-based; conditions: S. epidermidis, 2 × 10^6 CFU/mL
[5] = tested on: Salmonella typhimurium (KCTC 1926); type: cell-based; conditions: S. typhimurium, 2 × 10^6 CFU/mL
E. coli (KCTC 1682) = type: cell-based, Escherichia coli; conditions: 2 × 10^6 CFU/mL
[6] = tested on: Enterococcus faecalis (KCTC 2011); type: cell-based; conditions: E. faecalis, 2 × 10^6 CFU/mL
[7] = in the presence of 16 μM R9 (+R9)

Compound | antimicrobial activity (MIC) ([1]; peptide alone (−R9)) | antimicrobial activity (MIC) (S. aureus (KCTC 1621); [7]) | antimicrobial activity (MIC) (S. aureus (KCTC 1621); peptide alone (−R9)) | antimicrobial activity (MIC) [2, 7] | antimicrobial activity (MIC) ([2]; peptide alone (−R9)) | antimicrobial activity (MIC) [3, 7] | antimicrobial activity (MIC) ([3]; peptide alone (−R9)) | antimicrobial activity (MIC) [4, 7] | antimicrobial activity (MIC) ([4]; peptide alone (−R9)) | antimicrobial activity (MIC) [5, 7] | antimicrobial activity (MIC) ([5]; peptide alone (−R9)) | antimicrobial activity (MIC) [1, 7] | antimicrobial activity (MIC) (E. coli (KCTC 1682); [7]) | antimicrobial activity (MIC) (E. coli (KCTC 1682); peptide alone (−R9)) | antimicrobial activity (MIC) [6, 7] | antimicrobial activity (MIC) ([6]; peptide alone (−R9))
N=C(N)NCCC[C@H](NC(=O)[C@H](CCCNC(=N)N)NC(=O)[C@H](CCCNC(=N)N)NC(=O)[C@H](CCCNC(=N)N)NC(=O)[C@H](CCCNC(=N)N)NC(=O)[C@H](CCCNC(=N)N)NC(=O)[C@H](CCCNC(=N)N)NC(=O)[C@H](CCCNC(=N)N)NC(=O)[C@@H](N)CCCNC(=N)N)C(N)=O [R9] | > 128 µM | – | – | – | – | – | – | – | – | – | – | – | – | – | – | –
KWKKLLKKLLKLLKK-NH2 [M15] | 8–16/8–16 μM | 8/8 μM | 8/8 μM | 32/32 μM | 32/32 μM | 32/32 μM | 32/32 μM | 16 µM | 16 to 32 µM | 32/32 μM | 32/32 μM | 8–16/8–16 μM | 16 µM | 16 to 32 µM | 8 µM | 16 µM
RRRRRRRRRGGGGIGKWLHSAKKFGKAFVGEIMNS-NH2 [R9-magainin] | 2 to 4 µM | – | 8 µM | – | 4 to 8 µM | – | 4 µM | – | 4 to 8 µM | – | 1 to 2 µM | – | – | 2 to 4 µM | – | 4 µM
